Assay results: patent publication US20220386606A1, “SPECIFICALLY SUBSTITUTED 3-PHENYL-5-SPIROCYCLOPENTYL-3-PYRROLIN-2-ONES AND THEIR USE AS HERBICIDES” (Bayer Aktiengesellschaft, priority 2019, published 2022)

What was measured:
LOLRI [1] = assay: Pre-emergence herbicidal action against LOLRI (Table 8, titled post-emergence at 320 g/ha); assay type: in vivo, Lolium rigidum; settings: table stands in the pre-emergence section
In short: (§1)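 Sandy loam, wood-fiber pots, seeds covered with soil. Spray onto soil surface: aqueous WP/EC, 600 to 800 L/ha, 0.2% wetting agent. Greenhouse 3 weeks; visual % score vs untreated controls.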

PHBPU = assay: Pre-emergence herbicidal action against PHBPU; assay type: in vivo; settings: scored visually after 3 weeks, 100% = plants have died, 0% = like control plants
Source text: Seeds of monocotyledonous and dicotyledonous weed plants and crop plants are laid out in sandy loam soil in wood-fiber pots and covered with soil. The compounds of the invention, formulated in the form of wettable powders (WP) or as emulsion concentrates (EC), are then applied to the surface of the covering soil as aqueous suspension or emulsion at a water application rate equating to 600 to 800 L/ha with addition of 0.2% wetting agent.
After the treatment, the pots are placed in a greenhouse and kept under good growth conditions for the trial plants. The damage to the test plants is scored visually after a test period of 3 weeks by comparison with untreated controls (herbicidal activity in percent (%): 100% activity=the plants have died, 0% activity=like control plants).

ALOMY [2] = assay: Post-emergence herbicidal action against ALOMY; assay type: in vivo, Alopecurus myosuroides; settings: 80 g/ha, visual assessment after about 3 weeks
In short: (§2)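 Greenhouse post-emergence test; one-leaf stage (2–3 wk post-sowing), sandy loam. Spray: WP/EC in water, 600–800 l/ha, 0.2% wetting agent, onto green parts. Visual rating ~3 wk later, % vs untreated (100% = dead, 0% = like control).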

AMARE = assay: Pre-emergence herbicidal action against AMARE; assay type: in vivo, Amaranthus retroflexus; settings: 320 g/ha
In short: as §1

ECHCG [3] = assay: Pre-emergence herbicidal action against ECHCG; assay type: in vivo, Echinochloa crus-galli; settings: 320 g/ha, scored visually after 3 weeks vs untreated controls
In short: as §1

DIGSA [4] = assay: Post-emergence herbicidal action against DIGSA; assay type: in vivo, Digitaria sanguinalis; settings: 80 g/ha, visual assessment about 3 weeks after treatment vs untreated controls
In short: as §2

SETVI [5] = assay: Post-emergence herbicidal action against SETVI; assay type: in vivo, Setaria viridis; settings: 80 g/ha, visual assessment about 3 weeks after treatment vs untreated controls
In short: as §2

DIGSA [6] = assay: Pre-emergence herbicidal action against DIGSA; assay type: in vivo, Digitaria sanguinalis; settings: 320 g/ha, scored visually after 3 weeks vs untreated controls
In short: as §1

ABUTH = assay: Post-emergence herbicidal action against ABUTH; assay type: in vivo, Abutylon threophrasti; settings: 80 g/ha, visual assessment about 3 weeks after treatment vs untreated controls
In short: as §2

SETVI [7] = assay: Pre-emergence herbicidal action against SETVI; assay type: in vivo, Setaria viridis; settings: 320 g/ha, scored visually after 3 weeks vs untreated controls
In short: as §1

POLCO = assay: Pre-emergence herbicidal action against POLCO; assay type: in vivo, Polygonum convolvulus; settings: 320 g/ha
In short: as §1

AVEFA = assay: Pre-emergence herbicidal action against AVEFA; assay type: in vivo, Avena fatua; settings: 320 g/ha, scored visually after 3 weeks vs untreated controls
In short: as §1

ECHCG [8] = assay: Post-emergence herbicidal action against ECHCG; assay type: in vivo, Echinochloa crus-galli; settings: 80 g/ha, visual assessment about 3 weeks after treatment vs untreated controls
In short: as §2

VIOTR = assay: Pre-emergence herbicidal action against VIOTR; assay type: in vivo, Viola tricolor; settings: 320 g/ha
In short: as §1

LOLRI [9] = assay: Post-emergence herbicidal action against LOLRI; assay type: in vivo, Lolium rigidum; settings: 80 g/ha, visual assessment about 3 weeks after treatment vs untreated controls
In short: as §2

ALOMY [10] = assay: Pre-emergence herbicidal action against ALOMY; assay type: in vivo, Alopecurus myosuroides; settings: 320 g/ha, scored visually after 3 weeks vs untreated controls
In short: as §1

MATIN = assay: Pre-emergence herbicidal action against MATIN; assay type: in vivo; settings: 320 g/ha
In short: as §1

Compound: CC#Cc1cc(Br)c(C2=C(OC(=O)OCC)[C@]3(CC[C@H](COCC)C3)NC2=O)c(OC)c1 (stereo in doubt) [Example P-13, [3-(2-Bromo-6-methoxy-4-prop-1-ynyl-phenyl)-8-(ethoxymethyl)-2-oxo-1-azaspiro[4.4]non-3-en-4-yl] ethyl carbonate]
- Pre-emergence herbicidal action against LOLRI in % (LOLRI [1]): 100%
- Pre-emergence action at 320 g/ha against PHBPU in % (PHBPU): 100%
- Post-emergence action against ALOMY in % (ALOMY [2]): 100%
- Pre-emergence action against AMARE in % (AMARE): 90%
- Pre-emergence action against ECHCG in % (ECHCG [3]): 100%
- Post-emergence action against DIGSA in % (DIGSA [4]): 100%
- Post-emergence action against SETVI in % (SETVI [5]): 100%
- Pre-emergence action against DIGSA in % (DIGSA [6]): 100%
- Post-emergence action against ABUTH in % (ABUTH): 80%
- Pre-emergence action against SETVI in % (SETVI [7]): 100%
- Pre-emergence action against POLCO in % (POLCO): 80%
- Pre-emergence action against AVEFA in % (AVEFA): 100%
- Post-emergence action against ECHCG in % (ECHCG [8]): 100%
- Pre-emergence action against VIOTR in % (VIOTR): 100%
- Post-emergence action against LOLRI in % (LOLRI [9]): 100%
- Pre-emergence action against ALOMY in % (ALOMY [10]): 100%
- Pre-emergence action against MATIN in % (MATIN): 80%
